{"source": "patent US20110183336A1", "about": "“Method to Predict Responsiveness of Breast Cancer to Polyamine-Type Chemotherapy” (THE REGENTS OF THE UNIVERSITY OF CALIFORNIA, priority 2007, published 2011)", "assay_in_all_cases": "Cell growth inhibition assay (Cell Titer Glo)", "assay_type_in_all_cases": "cell-based, human", "key": {"S1": {"system": "S1", "conditions": "S1, HMEC, 72 h", "experimental": "(§1) Cell culture: Breast cell lines were obtained from the ATCC and from collections developed in the laboratories of Drs. Steve Ethier and Adi Gazdar.\n(§2) Cell growth inhibition assay and data analysis: Cells were plated at proper density in 96-well plates such that they would remain in log growth at the end of assay time. The cells were allowed to attach overnight before being exposed to CGC-11047 for 72 h. Drugs were dissolved in water as 100 mM stock. For the dose response study, a set of 9 doses from 5×10^−3 to 1.3×10^−8 M (final concentration) in 1:5 serial dilution were added in triplicate wells. The final DMSO concentration in the treated well was 0.3% or less. The cell growth was determined using Cell Titer Glo (CTG) assay (CellTiter-Glo Luminescent Cell Viability Assay, Promega, Madison, Wis.), with slight modification form manufacturer's protocol, at day 0 (time when drug was added) and at day 3 of drug exposure. Briefly, CTG reagent was diluted with PBS (1:1, volume: volume) and the culture media was removed from the 96-well plate prior to adding 50 μl per well of the diluted CTG reagent. Luminescence from the assay was recorded using BIO-TEK FLx800.\n(§3) Data calculations were made according to the method described by the NCI/NIH DTP Human Tumor Cell Line Screen Process (http://dtp.nci.nih.gov/branches/btb/ivclsp.html) and as described previously (Monks, A et al., JNCI 83:757-766, 1991). The percent growth curve is calculated as [(T−T0)/(C−T0)]×100, where T0 is the cell count at day 0, C is the vehicle control (e.g. 0.3% DMSO without drug) cell count at day 3, and T is the cell count at the test concentration. The GI50 and TGI value are determined as the drug concentration that results in a 50% and 0% growth at 72 h drug exposure. LC50 is calculated as [(T−T0)/T0]×100=−50, when T<T0."}, "MDAMB231": {"system": "MDAMB231", "conditions": "MDAMB231, Basal B, 72 h", "experimental": "as §1, §2, §3"}, "MDAMB157": {"system": "MDAMB157", "conditions": "MDAMB157, Basal B, 72 h", "experimental": "as §1, §2, §3"}, "HCC1500": {"system": "HCC1500", "conditions": "HCC1500, Basal B, 72 h", "experimental": "as §1, §2, §3"}, "MCF10F": {"system": "MCF10F", "conditions": "N, Basal A, 72 h", "experimental": "as §1, §2, §3"}, "T4": {"system": "T4", "conditions": "T4, Basal B, 72 h", "experimental": "as §1, §2, §3"}, "HCC1937": {"system": "HCC1937", "conditions": "HCC1937, Basal A, 72 h", "experimental": "as §1, §2, §3"}, "CAMA1": {"system": "CAMA1", "conditions": "CAMA1, Luminal, 72 h", "experimental": "as §1, §2, §3"}, "HCC1419": {"system": "HCC1419", "conditions": "HCC1419, Luminal, 72 h", "experimental": "as §1, §2, §3"}, "600MPE": {"system": "600MPE", "conditions": "Luminal, 72 h", "experimental": "as §1, §2, §3"}, "MDAMB468": {"system": "MDAMB468", "conditions": "MDAMB468, Basal A, 72 h", "experimental": "as §1, §2, §3"}, "HCC70": {"system": "HCC70", "conditions": "HCC70, Basal A, 72 h", "experimental": "as §1, §2, §3"}, "SUM1315MO2": {"system": "SUM1315MO2", "conditions": "SUM1315MO2, Basal B, 72 h", "experimental": "as §1, §2, §3"}, "SUM149PT": {"system": "SUM149PT", "conditions": "Basal B, 72 h", "experimental": "as §1, §2, §3"}, "MCF7": {"system": "MCF7", "conditions": "MCF7, Luminal, 72 h", "experimental": "as §1, §2, §3"}, "HCC1569": {"system": "HCC1569", "conditions": "HCC1569, Basal A, 72 h", "experimental": "as §1, §2, §3"}, "BT549": {"system": "BT549", "conditions": "BT549, Basal B, 72 h", "experimental": "as §1, §2, §3"}, "MDAMB175VII": {"system": "MDAMB175VII", "conditions": "Luminal, 72 h", "experimental": "as §1, §2, §3"}, "184B5": {"system": "184B5", "conditions": "184B5, HMEC, 72 h", "experimental": "as §1, §2, §3"}, "ZR75B": {"system": "ZR75B", "conditions": "Luminal, 72 h", "experimental": "as §1, §2, §3"}, "ZR7530": {"system": "ZR7530", "conditions": "ZR7530, Luminal, 72 h", "experimental": "as §1, §2, §3"}, "HCC1428": {"system": "HCC1428", "conditions": "HCC1428, Luminal, 72 h", "experimental": "as §1, §2, §3"}, "BT474": {"system": "BT474", "conditions": "BT474, Luminal, 72 h", "experimental": "as §1, §2, §3"}, "HCC1806": {"system": "HCC1806", "conditions": "HCC1806, Basal A, 72 h", "experimental": "as §1, §2, §3"}}}
{"smiles": "CCNCCCNC/C=C\\CNCCCNCC", "note": "[CGC-11047]", "values": [{"measurement": "GI50", "setting": "S1; Homo sapiens", "value": 0.8, "unit": "µM"}, {"measurement": "TGI", "setting": "S1", "value": 3000, "unit": "µM"}, {"measurement": "GI50", "setting": "MDAMB231; Homo sapiens, MDA-MB-231", "value": 2000, "unit": "µM"}, {"measurement": "TGI", "setting": "MDAMB231", "value": ">5000", "unit": "µM"}, {"measurement": "GI50", "setting": "MDAMB157; Homo sapiens, MDA-MB-157", "value": 200, "unit": "µM"}, {"measurement": "TGI", "setting": "MDAMB157", "value": 1000, "unit": "µM"}, {"measurement": "TGI", "setting": "HCC1500", "value": 600, "unit": "µM"}, {"measurement": "GI50", "setting": "HCC1500; Homo sapiens", "value": 20, "unit": "µM"}, {"measurement": "GI50", "setting": "MCF10F; Homo sapiens, MCF-10F", "value": 100, "unit": "µM"}, {"measurement": "TGI", "setting": "MCF10F", "value": 1100, "unit": "µM"}, {"measurement": "GI50", "setting": "T4; Homo sapiens", "value": 2, "unit": "µM"}, {"measurement": "TGI", "setting": "T4", "value": 800, "unit": "µM"}, {"measurement": "TGI", "setting": "HCC1937", "value": 300, "unit": "µM"}, {"measurement": "GI50", "setting": "HCC1937; Homo sapiens", "value": 0.8, "unit": "µM"}, {"measurement": "TGI", "setting": "CAMA1", "value": 1100, "unit": "µM"}, {"measurement": "GI50", "setting": "CAMA1; Homo sapiens, CAMA-1", "value": 350, "unit": "µM"}, {"measurement": "TGI", "setting": "HCC1419", "value": 31, "unit": "µM"}, {"measurement": "GI50", "setting": "HCC1419; Homo sapiens", "value": 7, "unit": "µM"}, {"measurement": "GI50", "setting": "600MPE; Homo sapiens", "value": 2, "unit": "µM"}, {"measurement": "TGI", "setting": "600MPE", "value": 2000, "unit": "µM"}, {"measurement": "GI50", "setting": "MDAMB468; Homo sapiens, MDA-MB-468", "value": 0.5, "unit": "µM"}, {"measurement": "TGI", "setting": "MDAMB468", "value": 2000, "unit": "µM"}, {"measurement": "TGI", "setting": "HCC70", "value": 0.53, "unit": "µM"}, {"measurement": "GI50", "setting": "HCC70; Homo sapiens", "value": 0.4, "unit": "µM"}, {"measurement": "GI50", "setting": "SUM1315MO2; Homo sapiens", "value": 700, "unit": "µM"}, {"measurement": "TGI", "setting": "SUM1315MO2", "value": 1300, "unit": "µM"}, {"measurement": "TGI", "setting": "SUM149PT", "value": 800, "unit": "µM"}, {"measurement": "GI50", "setting": "SUM149PT; Homo sapiens", "value": 2, "unit": "µM"}, {"measurement": "GI50", "setting": "MCF7; Homo sapiens", "value": 90, "unit": "µM"}, {"measurement": "TGI", "setting": "MCF7", "value": 1200, "unit": "µM"}, {"measurement": "TGI", "setting": "HCC1569", "value": 2000, "unit": "µM"}, {"measurement": "GI50", "setting": "HCC1569; Homo sapiens", "value": 220, "unit": "µM"}, {"measurement": "TGI", "setting": "BT549", "value": 1300, "unit": "µM"}, {"measurement": "GI50", "setting": "BT549; Homo sapiens, BT-549", "value": 1, "unit": "µM"}, {"measurement": "GI50", "setting": "MDAMB175VII; Homo sapiens, MDA-MB-175-VII", "value": 1000, "unit": "µM"}, {"measurement": "TGI", "setting": "MDAMB175VII", "value": 2000, "unit": "µM"}, {"measurement": "TGI", "setting": "184B5", "value": 400, "unit": "µM"}, {"measurement": "GI50", "setting": "184B5; Homo sapiens", "value": 300, "unit": "µM"}, {"measurement": "GI50", "setting": "ZR75B; Homo sapiens, ZR-75B", "value": 200, "unit": "µM"}, {"measurement": "TGI", "setting": "ZR75B", "value": 2000, "unit": "µM"}, {"measurement": "GI50", "setting": "ZR7530; Homo sapiens, ZR-75-30", "value": 0.8, "unit": "µM"}, {"measurement": "TGI", "setting": "ZR7530", "value": 1000, "unit": "µM"}, {"measurement": "TGI", "setting": "HCC1428", "value": 300, "unit": "µM"}, {"measurement": "GI50", "setting": "HCC1428; Homo sapiens", "value": 1, "unit": "µM"}, {"measurement": "TGI", "setting": "BT474", "value": 1000, "unit": "µM"}, {"measurement": "GI50", "setting": "BT474; Homo sapiens, BT-474", "value": 400, "unit": "µM"}, {"measurement": "TGI", "setting": "HCC1806", "value": 330, "unit": "µM"}, {"measurement": "GI50", "setting": "HCC1806; Homo sapiens", "value": 0.6, "unit": "µM"}]}
